Laboratory results as given in ChEMBL document CHEMBL3425402, “Discovery of β-D-2'-deoxy-2'-α-fluoro-4'-α-cyano-5-aza-7,9-dideaza adenosine as a potent nucleoside inhibitor of respiratory syncytial virus with excellent selectivity over mitochondrial RNA and DNA polymerases” (Bioorg Med Chem Lett, 2015).

Tests used:
[1] = Cytotoxicity against human MT4 cells assessed as cell viability after 5 days by Cell-Titer Glo assay; format: cell-based
[2] = Antiviral activity against RSV A2 infected in human Hep2 cells assessed as protection against virus-induced cytopathic effect after 4 days by Cell-Titer Glo assay; format: functional, cell-based; conditions: human respiratory syncytial virus, HEp-2, 96 h
[3] = Inhibition of RSV A2 RNA-dependent RNA polymerase expressed in human Hep2 cells using ATP, GTP, UTP, CTP and 1.5 uCi [alpha-32P] NTP as substrate assessed as reduction of total radiolabled transcript after 90 mins by agarose gel electrophoresis; set-up: species or system Human respiratory syncytial virus A2; conditions: hep-2
[4] = molecular target: DNA polymerase subunit gamma-1/gamma-2 (Homo sapiens) (UniProt P54098+Q9UHN1); test: Inhibition of human mitochondrial DNA polymerase gamma large subunit/DNA polymerase gamma accessory subunit using 32P-D19/D36 as DNA primer/template assessed as single nucleotide incorporation rate at 100 uM after 5 to 90 mins by PAGE analysis relative to thymidine NTP; format: protein assay
[5] = molecular target: DNA-directed RNA polymerase, mitochondrial (Homo sapiens) (UniProt O00411); test: Inhibition of human mitochondrial RNA polymerase using 5'-32P-R12/D18 as RNA/DNA template assessed as single nucleotide incorporation rate at 500 uM after 0.17 to 30 mins by PAGE analysis
Sequence of DNA-directed RNA polymerase, mitochondrial (Homo sapiens) (O00411 whole entry): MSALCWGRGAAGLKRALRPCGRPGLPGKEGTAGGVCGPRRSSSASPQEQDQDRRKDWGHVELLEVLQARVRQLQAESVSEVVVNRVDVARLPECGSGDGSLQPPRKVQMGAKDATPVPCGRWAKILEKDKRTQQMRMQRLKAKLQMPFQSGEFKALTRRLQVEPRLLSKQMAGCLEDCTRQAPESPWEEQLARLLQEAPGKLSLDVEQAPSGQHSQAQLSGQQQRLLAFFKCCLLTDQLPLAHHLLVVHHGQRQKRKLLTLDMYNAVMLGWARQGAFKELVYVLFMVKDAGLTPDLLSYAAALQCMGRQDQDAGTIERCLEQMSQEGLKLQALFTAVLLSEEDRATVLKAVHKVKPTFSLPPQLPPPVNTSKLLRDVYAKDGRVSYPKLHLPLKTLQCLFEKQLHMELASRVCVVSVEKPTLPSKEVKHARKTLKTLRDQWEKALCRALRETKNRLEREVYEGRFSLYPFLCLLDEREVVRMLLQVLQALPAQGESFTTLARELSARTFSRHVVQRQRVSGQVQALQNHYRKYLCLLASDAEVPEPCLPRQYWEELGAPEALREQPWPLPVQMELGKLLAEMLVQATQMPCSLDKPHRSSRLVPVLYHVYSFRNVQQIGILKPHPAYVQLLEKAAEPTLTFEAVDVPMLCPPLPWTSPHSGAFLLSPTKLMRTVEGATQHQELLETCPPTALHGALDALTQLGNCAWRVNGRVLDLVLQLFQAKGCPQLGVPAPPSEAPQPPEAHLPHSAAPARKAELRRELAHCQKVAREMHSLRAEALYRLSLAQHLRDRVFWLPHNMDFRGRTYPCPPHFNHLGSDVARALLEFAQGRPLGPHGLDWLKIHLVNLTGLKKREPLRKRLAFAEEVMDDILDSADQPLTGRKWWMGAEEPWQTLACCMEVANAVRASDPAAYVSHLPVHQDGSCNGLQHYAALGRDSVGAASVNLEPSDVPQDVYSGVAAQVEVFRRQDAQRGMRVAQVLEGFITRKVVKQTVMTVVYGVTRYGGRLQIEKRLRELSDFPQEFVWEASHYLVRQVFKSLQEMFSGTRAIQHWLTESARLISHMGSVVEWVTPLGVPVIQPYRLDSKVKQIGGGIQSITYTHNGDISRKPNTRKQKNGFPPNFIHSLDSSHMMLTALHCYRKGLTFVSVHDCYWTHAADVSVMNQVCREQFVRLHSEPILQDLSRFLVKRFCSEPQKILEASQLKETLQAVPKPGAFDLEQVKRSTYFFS

Sequence of DNA polymerase subunit gamma-1/gamma-2 (Homo sapiens) (P54098 whole entry, looked up): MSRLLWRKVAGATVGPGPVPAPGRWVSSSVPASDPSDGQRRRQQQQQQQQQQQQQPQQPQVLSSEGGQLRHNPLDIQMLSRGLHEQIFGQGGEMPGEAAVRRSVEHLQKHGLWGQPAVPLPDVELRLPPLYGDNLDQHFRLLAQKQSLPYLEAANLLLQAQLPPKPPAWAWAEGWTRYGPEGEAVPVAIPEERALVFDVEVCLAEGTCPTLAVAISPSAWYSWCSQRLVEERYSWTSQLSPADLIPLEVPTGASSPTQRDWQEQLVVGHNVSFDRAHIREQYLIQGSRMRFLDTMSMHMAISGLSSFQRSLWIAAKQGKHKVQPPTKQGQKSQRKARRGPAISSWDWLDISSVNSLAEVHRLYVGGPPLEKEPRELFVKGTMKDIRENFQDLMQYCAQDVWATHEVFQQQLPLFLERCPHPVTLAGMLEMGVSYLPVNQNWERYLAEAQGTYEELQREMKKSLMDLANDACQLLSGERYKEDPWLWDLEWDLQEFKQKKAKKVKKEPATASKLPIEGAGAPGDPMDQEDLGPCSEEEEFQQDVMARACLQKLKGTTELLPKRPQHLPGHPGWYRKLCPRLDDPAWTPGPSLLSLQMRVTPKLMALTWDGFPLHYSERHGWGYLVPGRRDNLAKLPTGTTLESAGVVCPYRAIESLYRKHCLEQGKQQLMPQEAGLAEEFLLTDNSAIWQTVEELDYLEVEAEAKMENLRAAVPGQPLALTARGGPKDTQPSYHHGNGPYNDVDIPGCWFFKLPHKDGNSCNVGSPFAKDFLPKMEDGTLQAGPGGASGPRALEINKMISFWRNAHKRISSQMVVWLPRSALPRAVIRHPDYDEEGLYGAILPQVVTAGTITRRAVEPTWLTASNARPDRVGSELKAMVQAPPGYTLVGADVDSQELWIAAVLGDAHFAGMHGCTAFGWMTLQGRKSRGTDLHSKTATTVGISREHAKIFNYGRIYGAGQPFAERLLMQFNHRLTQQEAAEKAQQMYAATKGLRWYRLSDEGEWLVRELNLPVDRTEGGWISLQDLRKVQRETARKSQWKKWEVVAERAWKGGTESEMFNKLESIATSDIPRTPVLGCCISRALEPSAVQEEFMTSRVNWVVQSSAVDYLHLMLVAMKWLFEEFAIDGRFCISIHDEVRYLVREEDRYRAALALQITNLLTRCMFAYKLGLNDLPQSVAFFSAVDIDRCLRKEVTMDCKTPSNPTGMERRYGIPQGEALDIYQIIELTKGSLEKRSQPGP
Sequence of DNA polymerase subunit gamma-1/gamma-2 (Homo sapiens) (Q9UHN1 whole entry, looked up): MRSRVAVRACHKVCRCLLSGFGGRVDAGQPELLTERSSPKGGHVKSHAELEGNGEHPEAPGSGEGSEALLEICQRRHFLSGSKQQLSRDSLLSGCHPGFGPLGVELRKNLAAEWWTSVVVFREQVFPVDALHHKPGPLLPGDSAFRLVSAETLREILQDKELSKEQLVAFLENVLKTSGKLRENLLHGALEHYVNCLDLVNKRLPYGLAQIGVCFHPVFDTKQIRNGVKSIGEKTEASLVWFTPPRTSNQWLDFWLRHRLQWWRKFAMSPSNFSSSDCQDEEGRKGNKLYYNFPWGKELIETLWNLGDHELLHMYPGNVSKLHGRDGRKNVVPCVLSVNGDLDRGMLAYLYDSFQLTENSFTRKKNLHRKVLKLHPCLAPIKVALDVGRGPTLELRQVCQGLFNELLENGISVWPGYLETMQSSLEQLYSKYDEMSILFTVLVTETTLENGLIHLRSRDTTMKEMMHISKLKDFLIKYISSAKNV

Structure (SMILES)	IC50 [3] [µM]	inhibition [4] [%]	inhibition [5] [%]	CC50 at 120 h [1] [µM]	EC50 [2] [µM]
C=C[C@]1(CO)O[C@@H](n2cnc3c(=O)[nH]c(N)nc32)[C@H](F)[C@@H]1O	12	1	1	46	17
N#C[C@]1(CO)O[C@@H](n2cnc3c(=O)[nH]c(N)nc32)[C@H](F)[C@@H]1O	2.6	3	0	24	10
Nc1nc2c(ncn2[C@@H]2O[C@H](CO)[C@@H](O)[C@H]2F)c(=O)[nH]1				> 49	
CC[C@]1(CO)O[C@@H](c2ccc3c(N)ncnn23)[C@H](F)[C@@H]1O	0.5	5.7	0.1	> 114	41
CC(C)C(=O)OC[C@@]1(N=[N+]=[N-])O[C@@H](n2ccc(N)nc2=O)[C@H](OC(=O)C(C)C)[C@@H]1OC(=O)C(C)C			112		
C#C[C@]1(CO)O[C@@H](n2cnc3c(=O)[nH]c(N)nc32)[C@H](F)[C@@H]1O	1.8	5	18	39	26
C=C[C@]1(CO)O[C@@H](c2ccc3c(N)ncnn23)[C@H](F)[C@@H]1O	0.6	10	2.9	> 114	10
N#C[C@]1(CO)O[C@@H](c2ccc3c(N)ncnn23)[C@H](F)[C@@H]1O	0.086	< 0.1	< 0.1	> 114	2
CC[C@]1(CO)O[C@@H](n2ccc(N)nc2=O)[C@H](F)[C@@H]1O	0.6	6	0	> 57	8

Second part, led by results:

IC50 [3] [µM]	inhibition [4] [%]	inhibition [5] [%]	Structure (SMILES)	CC50 at 120 h [1] [µM]	EC50 [2] [µM]
	99		O=c1[nH]c(=O)n([C@@H]2O[C@H](CO)[C@@H](O)[C@@H]2F)cc1I		
3.5	11	37	O=c1ccn([C@@H]2O[C@H](CO)[C@@H](O)[C@H]2F)c(=O)[nH]1		> 100
0.6	2.5	22	Nc1ncnn2c([C@@H]3O[C@H](CO)[C@@H](O)[C@H]3F)ccc12	26	> 100
6.6	34	21	Nc1nc(O)c2ncn([C@@H]3O[C@H](CO)[C@@H](O)[C@H]3F)c2n1		> 200
1.8	17	20	Nc1ccn([C@@H]2O[C@H](CO)[C@@H](O)[C@H]2F)c(=O)n1	3.8	> 200
0.6	4.9	1.2	C=C[C@]1(CO)O[C@@H](n2ccc(N)nc2=O)[C@H](F)[C@@H]1O	> 57	> 50
7.7	8	24	Nc1ncnc2c1ncn2[C@@H]1O[C@H](CO)[C@@H](O)[C@H]1F [2'-BETA-FLUORO-2',3'-DEOXYADENOSINE]		> 50
0.3	7	3	[N-]=[N+]=N[C@]1(CO)O[C@@H](n2ccc(N)nc2=O)[C@H](F)[C@@H]1O	23	3.5
1	41	0	Nc1ccn([C@@H]2O[C@@](CO)(CCl)[C@@H](O)[C@H]2F)c(=O)n1 [ALS-8112]	21	0.92
